Results: US7427469B2, “Method of treating cytomegalovirus with DC-SIGN blockers” (priority 2002, dated 2008)

Tests used:
[1] = test system: CMV; assay: CMV trans-infection assay: virus-pulsed DC-SIGN+ cells co-cultured with MRC-5 cells; assay type: cell-based, Human Cytomegalovirus; conditions: MD-DC, DC-SIGN+ THP-1 or DC-SIGN+ HeLa cells pre-incubated before pulse with CMV
Procedure: For trans-infection experiments, cells were incubated with viral suspensions (CMV, VZV or HSV-1, MOI=1) for 2 hr, at 37° C. Thereafter, unbound viral particles were removed by extensive washes and cells were co-cultured with sub-confluent MRC-5 or U373 MG cell monolayers. After 24 to 72 hr, infected MRC-5 or U373-MG cells were fixed, permeabilized and stained with specific mAbs directed against IEA- or EA-CMV (mAbs E13 and 2A2, respectively), VZV (mAb 2013) or HSV (mAb CHA-437) (Argen Biosoft, Varilhes, France). When indicated MD-DC or THP-1 (parental or DC-SIGN^+) cells were incubated with EGTA (5 mM), mannan or anti-DC-SIGN (1B10.2.6 mAb) for 30 minutes at 4° C. prior challenge with infectious preparations. Infection by ADGFP strain was assessed by counting GFP-expressing cells at day 3. For long term infectivity experiments DC-SIGN^+ or parental THP-1 cells were incubated with ADGFP (MOI=1) for 4 hr at 37° C. After extensive washes, infected cells were incubated at 37° C. and an aliquot of these cells was added to a sub-confluent MRC-5 cell culture every 2 days during the assay.
MD-DC, THP-1 or HeLa expressing DC-SIGN were incubated with a mutant CMV strain encoding a GFP (ADGFP) (Borst et al., 2001). […]
The capacity of DC-SIGN to enhance infectiveness of CMV was assessed. […]

[2] = molecular target: T1, DC-SIGNR (Homo sapiens, UniProt Q9H2X3); assay type: binding; conditions: data not shown
T1 construct: expressed in transfected cells; host or cells: HEK 293T, transient transfection; cDNA a gift from Dr R. W. Doms
T1 sequence (Q9H2X3 whole entry): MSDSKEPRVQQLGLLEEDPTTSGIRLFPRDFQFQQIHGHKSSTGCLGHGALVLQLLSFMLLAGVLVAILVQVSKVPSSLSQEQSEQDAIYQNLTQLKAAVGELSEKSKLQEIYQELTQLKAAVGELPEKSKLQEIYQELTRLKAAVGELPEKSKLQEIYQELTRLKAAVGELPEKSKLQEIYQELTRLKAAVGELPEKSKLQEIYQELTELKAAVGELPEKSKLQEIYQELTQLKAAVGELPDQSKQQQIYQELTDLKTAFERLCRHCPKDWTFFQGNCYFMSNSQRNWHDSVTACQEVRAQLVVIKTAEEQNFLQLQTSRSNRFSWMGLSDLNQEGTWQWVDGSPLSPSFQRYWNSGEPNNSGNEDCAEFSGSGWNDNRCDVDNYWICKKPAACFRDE

[3] = molecular target: T2, DC-SIGN (Homo sapiens, UniProt Q9NNX6); assay type: binding; set-up: expressed in transfected cells; conditions: data not shown
T2 sequence (Q9NNX6 1-404): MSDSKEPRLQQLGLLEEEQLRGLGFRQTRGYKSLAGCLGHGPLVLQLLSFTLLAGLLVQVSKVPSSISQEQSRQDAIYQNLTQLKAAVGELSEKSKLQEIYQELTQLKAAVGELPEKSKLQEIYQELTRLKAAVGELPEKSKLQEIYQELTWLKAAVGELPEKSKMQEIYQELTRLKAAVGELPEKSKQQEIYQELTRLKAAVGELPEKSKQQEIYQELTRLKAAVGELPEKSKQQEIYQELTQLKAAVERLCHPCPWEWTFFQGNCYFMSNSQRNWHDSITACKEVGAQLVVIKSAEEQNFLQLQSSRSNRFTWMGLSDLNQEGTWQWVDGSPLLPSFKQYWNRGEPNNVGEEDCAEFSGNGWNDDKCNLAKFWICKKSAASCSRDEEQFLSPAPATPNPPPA

[4] = molecular target: T2, DC-SIGN; assay: Binding of CMV virions to DC-SIGN-expressing cells (flow cytometry, anti-CMV gB mAb); assay type: cell-based; set-up: expressed in transfected cells; host or cells: THP-1 (gift of Dr. D. R. Littman; Kwon et al., 2002); conditions: pre-incubation of cells with the substance
Procedure: The capacity of CMV to bind DC-SIGN was investigated. Parental and DC-SIGN^+ THP-1 cells, or immature monocyte-derived DC (MD-DC) were incubated on ice with increasing concentrations of CMV and the presence of cell-bound virions was quantified by flow cytometry using a mAb directed against the CMV gB.

[5] = molecular target: T2, DC-SIGN; assay: HIV-1 gp120 binding competition assay on DC-SIGN+ THP-1 cells; set-up: expressed in transfected cells; host or cells: THP-1 (gift of Dr. D. R. Littman; Kwon et al., 2002); conditions: DC-SIGN+ THP-1 cells pre-treated with competitors (20 μg/ml)
Procedure: DC-SIGN^+ THP-1 cells were washed two times, resuspended in ice-cold binding buffer (1 mM CaCl2, 2 mM MgCl2 and 0.1% Bovine Serum Albumin in PBS) at 10^6 cells/mL and pre-treated or not for 15 minutes with competitors (20 μg/ml). Thereafter, recombinant biotinylated CXCR4-tropic (MN isolate) HIV-1 gp120 (2 μg/ml; Immunodiagnostics Inc., Woburg, Mass.) was added for 30 minutes at 4° C.
In this assay we pre-incubated DC-SIGN^+ THP-1 cells with purified HIV-1 gp120, CMV gB, HSV-1 gB, VZV gB, HSV-1 gD or VZV gE. Following exposure to each single envelope glycoprotein, cells were incubated with biotinylated HIV-1 gp120, which binding to DC-SIGN^+ THP-1 cells was evidenced by immunostaining and FACS analysis.

Compound: O=C(O)CN(CCOCCOCCN(CC(=O)O)CC(=O)O)CC(=O)O [EGTA]
- Trans-infection of MRC-5 cells / transmission of CMV from DC-SIGN+ cells to MRC-5 cells [1]: prevented
- Binding of HIV-1 gp120 and CMV gB to HEK 293T cells expressing DC-SIGNR [2]: blocked
- Binding of HIV-1 gp120 and CMV gB to HEK 293T cells expressing DC-SIGN [3]: blocked

Compound: mannan
- Trans-infection of MRC-5 cells / transmission of CMV from DC-SIGN+ cells to MRC-5 cells [1]: prevented
- CMV virion attachment to cells [4]: Abrogation
- Binding of biotinylated HIV-1 gp120 on DC-SIGN (competition) [5]: competitive effect
